In US9181234B2, “Antibacterial compounds” (priority 2010, dated 2015):
≈ marks a conversion by molar mass, not a printed value.

What was measured:
physchem = settings: for solubility at 24 h: kinetic from dmso stock
Method in brief: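 DMSO doubling dilutions were diluted twenty-fold into 100 mM citrate (pH 4), PBS (pH 7.4) or carbonate-bicarbonate (pH 9). After 24 h equilibration at room temperature, absorbance was read at 620 nm. The reported value is the highest concentration without measurable precipitate.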

[1] = tested on: Staphylococcus aureus (Isolate ID ATCC 29213); assay: Antibacterial activity, MIC, S. aureus; format: cell-based; settings: broth microdilution or agar dilution; for MIC: Staphylococcus aureus, ATCC29213, Gram positive strain
Method in brief: (§1)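 Readout is the MIC, established according to CLSI standard M7-A7 using either agar dilution or broth microdilution.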

[2] = tested on: Enterococcus faecalis (Isolate ID ATCC 29212); assay: Antibacterial activity, MIC, E. faecalis; format: cell-based; settings: Gram positive strain, broth microdilution or agar dilution; for MIC: Enterococcus faecalis, ATCC29212
Method in brief: as §1

[3] = tested on: Streptococcus pyogenes (Isolate ID ATCC 51339); assay: Antibacterial activity, MIC, S. pyogenes; format: cell-based; settings: broth microdilution or agar dilution; for MIC: Streptococcus pyogenes, ATCC51339, Gram positive strain
Method in brief: as §1

[4] = tested on: Haemophilus influenzae (Isolate ID ATCC 49247); assay: Antibacterial activity, MIC, H. influenzae; format: cell-based; settings: Gram negative strain, broth microdilution or agar dilution; for MIC: Haemophilus influenzae, ATCC49247
Method in brief: as §1

[5] = pH 7.4, aqueous buffer, Solubility (pH 7.4)
[6] = pH 7.4, aqueous buffer, Solubility Range
[7] = pH 9, aqueous buffer, Max Solubility
[8] = pH 9, aqueous buffer, Solubility Range (maximum solubility)
[9] = pH 7.4, aqueous buffer, Max Solubility
[10] = pH 7.4, aqueous buffer, Solubility Range (maximum solubility)

Row | Structure (SMILES) | Solubility (pH 7.4) (physchem; pH 7.4) [μg/mL] | Max Solubility (physchem; pH 9) | Antibacterial Activity (MIC) S. aureus (ATCC 29213) ([1]; Gram positive strain) | Antibacterial Activity (MIC) E. faecalis (ATCC 29212) [2] | Antibacterial Activity (MIC) S. pyogenes (ATCC 51339) ([3]; Gram positive strain) | Antibacterial Activity (MIC) H. influenzae (ATCC 49247) [4] | solubility at 24 h (physchem; [5]) [µg/mL] | solubility at 24 h (physchem; [6]) [µg/mL] | solubility at 24 h (physchem; [7]) [µg/mL] | solubility at 24 h (physchem; [8]) [µg/mL] | MIC [1] [µg/mL] | MIC [2] [µg/mL] | MIC [3] [µg/mL] | MIC [4] [µg/mL] | solubility at 24 h (physchem; [9]) [µg/mL] | solubility at 24 h (physchem; [10]) [µg/mL]
1 | CCCC1(C(=O)OCC)CCN(c2ncc(-c3cc(Br)c4sc(NC(=O)NCC)nc4c3)cn2)CC1 [Compound 119] | 400 | ≧800 μg/mL | A (“A” activity ≦0.25 μg/mL) | A (“A” activity ≦0.25 μg/mL) | C (“C” activity >1.0 μg/mL-16 μg/mL) | D (“D” activity >16 μg/mL) | – | – | – | – | – | – | – | – | – | –
2 | CCCC1(C(=O)O)CCN(c2ncc(-c3cc(-c4nccc(C)n4)c4sc(NC(=O)NCC)nc4c3)cn2)CC1 [Compound 120] | – | – | – | – | – | – | 400 (≈ 713 µM) | 400 to 800 (≈ 713 to 1430 µM) | ≥ 800 | > 800 | ≤ 0.25 | ≤ 0.25 | ≤ 0.25 | > 16 | – | –
3 | CCCC1(C(=O)O)CCN(c2ncc(-c3cc(-c4cc(OC)ncn4)c4sc(NC(=O)NCC)nc4c3)cn2)CC1 [Compound 121] | – | – | – | – | – | – | 100 (≈ 173 µM) | 12.5 to 400 (≈ 21.7 to 694 µM) | ≥ 800 | > 800 | ≤ 0.25 | ≤ 0.25 | ≤ 0.25 | 1 to 16 (≈ 1.73 to 27.7 µM) | – | –
4 | CCCC1(C(=O)O)CCN(c2ncc(-c3cc(-c4cc(OC)ccn4)c4sc(NC(=O)NCC)nc4c3)cn2)CC1 [Compound 122] | – | – | – | – | – | – | ≥ 800 | > 800 | – | – | ≤ 0.25 | ≤ 0.25 | ≤ 0.25 | 1 to 16 (≈ 1.74 to 27.8 µM) | ≥ 800 | > 800
5 | CCCC1(C(=O)O)CCN(c2ncc(-c3cc(-c4cc(C#N)ccn4)c4sc(NC(=O)NCC)nc4c3)cn2)CC1 [Compound 123] | – | – | – | – | – | – | ≥ 800 | > 800 | – | – | ≤ 0.25 | ≤ 0.25 | ≤ 0.25 | > 16 | ≥ 800 | > 800
6 | CCCC1(C(=O)O)CCN(c2ncc(-c3cc(-c4ccc(C#N)cn4)c4sc(NC(=O)NCC)nc4c3)cn2)CC1 [Compound 124] | – | – | – | – | – | – | ≥ 800 | > 800 | – | – | ≤ 0.25 | ≤ 0.25 | ≤ 0.25 | 1 to 16 (≈ 1.75 to 28 µM) | ≥ 800 | > 800
7 | CCCC1(C(=O)O)CCN(c2ncc(-c3cc(-c4ncnc5[nH]ccc45)c4sc(NC(=O)NCC)nc4c3)cn2)CC1 [Compound 125] | – | – | – | – | – | – | 50 (≈ 85.4 µM) | 12.5 to 400 (≈ 21.3 to 683 µM) | ≥ 800 | > 800 | 0.25 to 1 (≈ 0.427 to 1.71 µM) | ≤ 0.25 | ≤ 0.25 | > 16 | – | –
8 | CCCC1(C(=O)O)CCN(c2ncc(-c3cc(-c4ncccc4C#N)c4sc(NC(=O)NCC)nc4c3)cn2)CC1 [Compound 126] | – | – | – | – | – | – | 100 (≈ 175 µM) | 12.5 to 400 (≈ 21.9 to 701 µM) | ≥ 800 | > 800 | ≤ 0.25 | ≤ 0.25 | ≤ 0.25 | 1 to 16 (≈ 1.75 to 28 µM) | – | –
9 | CCCC1(C(=O)O)CCN(c2ncc(-c3cc(-c4nccc(OC)n4)c4sc(NC(=O)NCC)nc4c3)cn2)CC1 [Compound 127] | – | – | – | – | – | – | 12.5 (≈ 21.7 µM) | 12.5 to 400 (≈ 21.7 to 694 µM) | 25 (≈ 43.4 µM) | 12.5 to 400 (≈ 21.7 to 694 µM) | ≤ 0.25 | ≤ 0.25 | ≤ 0.25 | > 16 | – | –
10 | CCNC(=O)Nc1nc2cc(-c3cnc(N4CCC(N)(C(=O)O)CC4)nc3)cc(-c3ccccn3)c2s1 [Compound 128, 4-amino-1-[5-[2-(ethylcarbamoylamino)-7-(2-pyridyl)-1,3-benzothiazol-5-yl]pyrimidin-2-yl]piperidine-4-carboxylic acid] | – | – | – | – | – | – | 25 (≈ 48.2 µM) | 12.5 to 400 (≈ 24.1 to 771 µM) | – | – | > 16 | > 16 | 1 to 16 (≈ 1.93 to 30.9 µM) | > 16 | – | –
11 | CCNC(=O)Nc1nc2cc(-c3cnc(N4CCC(C(=O)O)(c5ccccc5)CC4)nc3)cc(-c3ccccn3)c2s1 [Compound 129] | – | – | – | – | – | – | 12.5 (≈ 21.6 µM) | 12.5 to 400 (≈ 21.6 to 690 µM) | – | – | 0.25 to 1 (≈ 0.431 to 1.73 µM) | ≤ 0.25 | 0.25 to 1 (≈ 0.431 to 1.73 µM) | > 16 | – | –
12 | CCNC(=O)Nc1nc2cc(-c3cnc(N4CCC(C#N)(C(=O)O)CC4)nc3)cc(-c3ccccn3)c2s1 [Compound 130] | – | – | – | – | – | – | 200 (≈ 378 µM) | 12.5 to 400 (≈ 23.6 to 757 µM) | – | – | > 16 | 1 to 16 (≈ 1.89 to 30.3 µM) | 1 to 16 (≈ 1.89 to 30.3 µM) | > 16 | – | –
13 | CCNC(=O)Nc1nc2cc(-c3cnc(N4CCC(O)(C(=O)O)CC4)nc3)cc(-c3ccccn3)c2s1 [Compound 131] | – | – | – | – | – | – | 100 (≈ 192 µM) | 12.5 to 400 (≈ 24.1 to 770 µM) | – | – | 1 to 16 (≈ 1.92 to 30.8 µM) | 0.25 to 1 (≈ 0.481 to 1.92 µM) | ≤ 0.25 | 1 to 16 (≈ 1.92 to 30.8 µM) | – | –
